Activity calls are given as the source filed them. The rule behind the calls is not given here.
Key:
MCF7 = assay: Cytotoxicity against human MCF7 cells after 48 hrs by MTT assay; format: functional, cell-based; conditions: MCF7, 48 h
[1] = Induction of mouse ST-13 cell differentiation into mature adipocyte at 50 uM; format: functional
Escherichia coli = assay: Antimicrobial activity against Escherichia coli NIH-JC2 after 20 hrs by microplate reader; format: functional; conditions: NIH-JC2, 20 h
ST-13 = assay: Induction of mouse ST-13 cell differentiation into mature adipocyte at 2 to 50 uM; format: functional, cell-based
Candida albicans = assay: Antimicrobial activity against Candida albicans IFO1594 after 20 hrs by microplate reader; format: functional; conditions: IFO1594, 20 h
Micrococcus luteus = assay: Antimicrobial activity against Micrococcus luteus ATCC 9343 after 20 hrs by microplate reader; format: functional; conditions: ATCC 9343, 20 h

SMILES: C/C=C(C)/C=C/C(=O)N[C@H](C(=O)O[C@H](C)[C@@H](C)C(=O)O)[C@H](C)c1ccccc1 [JOMTHONIC ACID A]
- IC50 (MCF7): > 100 µM
- Activity [1]: 80%
- MIC (Escherichia coli): > 50 µg/mL
- Activity (ST-13): Active
- MIC (Candida albicans): > 50 µg/mL
- MIC (Micrococcus luteus): > 50 µg/mL

From ChEMBL document CHEMBL2046327, “Jomthonic acid , a modified amino acid from a soil-derived Streptomyces” (J Nat Prod, 2012)
